Experiment: Human HepG2 cell viability assay in 384 well format
Format: toxicity, cell-based
Set-up: dose 125 nL, time 70.5 hour; concentration not given beside the values
Conditions: HepG2 cells, read-out: Inhibition

Row | Compound | cytotoxicity at 70.5 h [%]
1 | Cc1nnc(SCC(=O)Nc2csc3nc(=O)c(C)nn23)s1 | 7.9
2 | O=C(Cc1cnc(-c2c(Cl)cccc2Cl)s1)N1CCOCC1 | -13.9
3 | O=C(Cc1cnc(-c2c(Cl)cccc2Cl)s1)N1CCC2(CC1)OCCO2 | -14.1
4 | CC(C)NC(=O)CNC(=O)N1CCc2c([nH]c3ccc(Cl)cc23)C1 | -7.52
5 | O=C(CNC(=O)N1CCc2c([nH]c3ccc(Cl)cc23)C1)NC1CCCC1 | -0.711
6 | NC(=O)C1CCN(C(=O)Cc2cnc(-c3c(Cl)cccc3Cl)s2)CC1 | -13.5
7 | CCc1nc2c(c(C)c(C)n2Cc2cccnc2)c(N)c1C | 0.896
8 | O=C1CCCC2=C1C(c1ccc(Cl)cc1Cl)Nc1nonc1N2 (stereo unspecified) | -1.65
9 | CC(=O)N1CCN(C(=O)Cc2cnc(-c3c(Cl)cccc3Cl)s2)CC1 | -13.6
10 | Cc1nn2c(NC(=O)CSc3nccn3C)csc2nc1=O | 6.49
11 | CC(C)CNC(=O)Cc1cnc(-n2cccc2)s1 | -18.5
12 | CC(C)NC(=O)c1nc(COc2ccc3c(c2)OCO3)no1 | -8.71
13 | O=C1CCCC2=C1C(c1cccc(F)c1F)Nc1nonc1N2 (stereo unspecified) | 1.2
14 | N#CC1=C(N)Nn2c(nnc2-c2ccccc2F)S1 | -36.2
15 | Cc1nnc(SC2CCc3ccccc3NC2=O)n1C (stereo unspecified) | -23
16 | CN1CCN(CCCNC(=O)c2nc3ccccc3c(=O)[nH]2)CC1 | -19.4
17 | CC(C)CCNC(=O)Cc1cnc(-n2cccc2)s1 | -21
18 | CC(=O)Nc1ccc(OCc2noc(C(=O)N3CCCC3)n2)cc1 | -14.2
19 | CCC(C)[C@H](NC(=O)c1cc(F)ccc1-n1cnnn1)C(=O)OC (stereo partly specified) | -13.4

Row | Compound | cytotoxicity at 70.5 h [%]
20 | O=C(Cc1noc(C(=O)NCCO)n1)Nc1cccc(C(F)(F)F)c1 | -22.4
21 | COc1cc2c(cc1OC)C(=O)C(Sc1nnnn1C)C2 (stereo unspecified) | -18.6
22 | O=S1(=O)CCC(S(=O)(=O)c2cccc(S(=O)(=O)N3CCCC3)c2)C1 (stereo unspecified) | -12.1
23 | COc1ccccc1N1CCN(c2nc(N)nc3[nH]cnc23)CC1 | -11.3
24 | CCSCC(C)NCc1nc(-c2cccnc2)no1 (stereo unspecified) | 19.3
25 | CC(CCn1cccn1)NCc1n[nH]c2c1CCCCC2 (stereo unspecified) | 22.7
26 | Cc1ccc(C)c(NC(=O)c2coc(C)n2)c1 | -6.52
27 | Cc1cncc(C(=O)N2CCCC(O)(CN3CCCC3)C2)c1 (stereo unspecified) | -19.8
28 | O=C(CCS(=O)(=O)c1ccccc1)NC1CCOC2(CCOCC2)C1 (stereo unspecified) | -8.45
29 | CN(C)C(=O)c1ccc(C2CCCN2C(=O)CCC2=NNC(=O)CC2)s1 (stereo unspecified) | -14.5
30 | O=c1[nH]c(-c2ccncc2)nc2c1CCN(S(=O)(=O)N1CCCC1)C2 | -13.7
31 | CCCc1cc(NCCC2CCCOC2)n2nccc2n1 (stereo unspecified) | 14.3
32 | COCCC1(CO)CCCN(C(=O)c2cccnc2OC)C1 (stereo unspecified) | -5.91
33 | Cc1c(C(=O)N(C)c2ccccc2)cccc1N(C)S(C)(=O)=O | -7.07
34 | CC(C)[C@@H]1CN(CCCOc2ccc(F)cc2)C[C@H]1NS(C)(=O)=O | -8.14
35 | O=C(c1cc(-c2cn[nH]c2)nc2cc(F)ccc12)N1CCS(=O)(=O)CC1 | -13.7
36 | Cc1cc(C(F)(F)F)cc(=O)n1Cc1nc(C(C)C)no1 | -14.9
37 | Cc1cccc(C)c1NC(=O)c1cccc(N(C)S(C)(=O)=O)c1C | -14.1
38 | CC(=O)Nn1ccc2c(nnc3c(-c4ccc(F)cc4)cnn32)c1=O | -20.1

Row | Compound | cytotoxicity at 70.5 h [%]
39 | CSCCN1CCC(NC(=O)OC(C)(C)C)CC1 | -6.72
40 | CC1CCCN(CCCNC(=O)c2ccc(N(C)S(C)(=O)=O)cc2Cl)C1 (stereo unspecified) | -2.33
41 | Cc1ccccc1CCC(=O)N1CCc2ncnc(NCCO)c2CC1 | -0.133
42 | O=C(NCc1nc(-c2ncccn2)no1)c1ccc(C2CCCO2)s1 (stereo unspecified) | 11.9
43 | O=C(O)CCn1ccc2c(nnc3c(-c4ccc(F)cc4)cnn32)c1=O | -24.9
44 | O=C(c1cc(Cn2ccc3ccccc32)[nH]n1)N1CCC[C@H]1CO | -0.0597
45 | O=C(Cc1cnccn1)N1C[C@H]2CC[C@@H]1CN(Cc1cscn1)C2 | -12.8
46 | O=C1COc2cc(C(=O)NS(=O)(=O)c3ccc(F)c(F)c3)ccc2N1 | 10.9
47 | Cc1nc2ccnn2c(C)c1CCC(=O)N1CCN(CCO)CC1 | -9.84
48 | O=C1COc2cc(C(=O)NS(=O)(=O)c3cc(Cl)ccc3Cl)ccc2N1 | -8.05
49 | O=C1COc2cc(C(=O)NS(=O)(=O)c3ccc(F)cc3F)ccc2N1 | -13.6
50 | Cc1cnc2c(S(=O)(=O)NCC3CCOC3)cccc2c1 (stereo unspecified) | -10.2
51 | CN(C)c1cc(C(=O)N2CCCC2c2cnn(C)c2)ccn1 (stereo unspecified) | 4.19
52 | CCCN(CC)c1ccc(C(=O)N2CCCC2c2cnn(C)c2)cn1 (stereo unspecified) | -5.94
53 | CN(C)c1ccc(C(=O)N2CCCC2c2cnn(C)c2)cn1 (stereo unspecified) | -2.8
54 | CCOc1ccc(C(=O)N2CCCC2c2cnn(C)c2)cn1 (stereo unspecified) | -5.51
55 | CCc1ncc2c(n1)CN(CC(=O)Nc1ccncc1)CC2 | -3.06
56 | Cc1ncc(C(=O)NCCNC(=O)c2ccccc2)s1 | -6.97

Reference: ChEMBL document CHEMBL3507680, “University of Dundee, Gates Library screen for HepG2 cell viability”
